Data from patent publication US20040097421A1 (priority 2000, published 2004).
Counter-ions that a name gives are not always drawn.

How the values were obtained:
[1] = system: fresh human tumour specimens (fourteen hematological, thirteen solid); experiment: FMCA, IC50 comparison in 27 fresh human tumour specimens; type: cell-based; settings: 27 human tumour samples, 82 to 0.131 μM
[2] = system: U937vcr (vincristine resistance subline); type: cell-based, human
[3] = system: hematological tumors, primary cultures of human tumor cells from patients (PHTC); type: cell-based
[4] = system: Ovarian carcinoma tumor cell system; experiment: Cytotoxic activity in different tumor models, ovarian carcinoma; type: cell-based, human; settings: Number 8
[5] = system: Breast cancer tumor cell system; experiment: Cytotoxic activity in different tumor models, breast cancer; type: cell-based, human; settings: Number 4
[6] = system: NSC Lung cancer tumor cell system; experiment: Cytotoxic activity in different tumor models, NSC lung cancer; type: cell-based, human; settings: Number 8
[7] = system: Prostate cancer tumor cell system; experiment: Cytotoxic activity in different tumor models, prostate cancer; type: cell-based, human; settings: Number 1
[8] = system: Corpus cancer tumor cell system; experiment: Cytotoxic activity in different tumor models, corpus cancer; type: cell-based, human; settings: Number 4
[9] = system: Adenocarcinoma tumor cell system; experiment: Cytotoxic activity in different tumor models, adenocarcinoma; type: cell-based, human; settings: Number 5
[10] = system: 27 PHTC samples from 9 patients with hematological and 18 patients with solid tumours; experiment: Circumvention of melphalan resistance, FMCA classification of PHTC samples; type: cell-based, human; settings: 4 μM
[11] = system: solid tumour types, cell lines and primary cultures of human tumour cells from patients; experiment: Tumour type specific spectrum of antitumour activity, solid tumour types; type: cell-based; settings: 4.0 μM
RPMI 8322 melanoma cells = settings: cited from earlier work
[12] = system: CEM/S (leukemia CCRF-CEM); experiment: cells; type: cell-based; settings: Homo sapiens, 72 h, read-out: IC50 (μM), CEM/S
[13] = system: 8226S (myeloma RPMI 8226); experiment: cells; type: cell-based, human; settings: Homo sapiens, RPMI-8226, 72 h, read-out: IC50 (μM), 8226S
[14] = system: panel of ten human tumour cell lines; type: cell-based
[15] = system: U-1752 (non-small cell lung cancer); experiment: cells; type: cell-based; settings: Homo sapiens, read-out: IC50 (μM), U-1752
[16] = system: NCI-H611 (non-small cell lung cancer); experiment: cells; type: cell-based; settings: Homo sapiens, read-out: IC50 (μM), NCI-H611
[17] = system: NCI-H125 (non-small cell lung cancer); experiment: cells; type: cell-based; settings: Homo sapiens, NCI-H125, read-out: IC50 (μM), NCI-H125
[18] = system: U-1568 (non-small cell lung cancer); experiment: cells; type: cell-based; settings: Homo sapiens, read-out: IC50 (μM), U-1568
[19] = system: U1906L (small cell lung cancer); experiment: cells; type: cell-based; settings: Homo sapiens, read-out: IC50 (μM), U1906L
[20] = system: U1285 (small cell lung cancer); experiment: cells; type: cell-based; settings: Homo sapiens, read-out: IC50 (μM), U1285
[21] = system: U-1906E (small cell lung cancer); experiment: cells; type: cell-based; settings: Homo sapiens, read-out: IC50 (μM), U-1906E
[22] = system: U1690 (small cell lung cancer); experiment: cells; type: cell-based; settings: Homo sapiens, read-out: IC50 (μM), U1690

CCOC(=O)[C@H](Cc1ccc(F)cc1)NC(=O)[C@H](Cc1cccc(N(CCCl)CCCl)c1)NC(=O)[C@@H]1CCCN1 [Example P2, L-prolyl-m-L-sarcolysyl-p-L-fluorophenylalanine ethyl ester hydrochloride]
Comparison of IC50s (FIG. 2) [1]: more active than melphalan
IC50 [2]: 1.77 µM
Tumor cell survival index (%), Hematological tumors n = 7-11 [3]: 7%
Median response at 4.0 μM >50% reduction in tumor cell survival [4]: No
Median response at 4.0 μM >50% reduction in tumor cell survival [5]: No
Median response at 4.0 μM >50% reduction in tumor cell survival [6]: No
Median response at 4.0 μM >50% reduction in tumor cell survival [7]: No
Median response at 4.0 μM >50% reduction in tumor cell survival [8]: No
Median response at 4.0 μM >50% reduction in tumor cell survival [9]: No
Number of samples classified EDR (extreme drug resistance) [10]: 1
Number of samples classified IDR (intermediate drug resistance) [10]: 4
Samples classified EDR (%) [10]: 5%
Activity in the listed diagnoses of Table 5 [11]: inactive
Toxicity to RPMI 8322 melanoma cells compared with the other PTC peptides (RPMI 8322 melanoma cells): more toxic

CC[C@@]1(O)C(=O)OCc2c1cc1n(c2=O)Cc2cc3c(CN(C)C)c(O)ccc3nc2-1 [Topotecan, topotecan]
IC50 [12]: 0.02 µM
IC50 [13]: 0.87 µM
IC50 (μM), MEAN [14]: 20.0 µM
IC50 [15]: 28 µM
IC50 [16]: ≥ 236 µM
IC50 [17]: ≥ 236 µM
IC50 [18]: 115 µM
IC50 [19]: 0.12 µM
IC50 [20]: 0.17 µM
IC50 [21]: 0.08 µM
IC50 [22]: 0.92 µM
